Several values for one entry are separate records, joined by “and”; a condition that tells them apart may be missing. Equal entries are not always repeated.
Tested on: Swiss mice, Sarcoma 180 sc, mean tumor weight T/C
Assay: NCI In Vivo Anticancer Drug Screen. Data for tumor model Sarcoma 180 (subcutaneous) in Swiss mice
Settings: endpoint: mean tumor weight, higher = larger tumour
Summary of the method: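 Transplantable tumors were established in mice, compound was given, then survival or tumor size was recorded. The treated value was divided by the vehicle-control value.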

[1] = dose: 50.0 mg/kg/injection, schedule: Q01DX007 (ip), vehicle: carboxymethylcellulose (CMC)
[2] = dose: 100.0 mg/kg/injection, schedule: Q01DX007 (ip), vehicle: carboxymethylcellulose (CMC)
[3] = dose: 200.0 mg/kg/injection, schedule: Q01DX007 (ip), vehicle: carboxymethylcellulose (CMC)

## CCCCCCCCCCCCCC1=C(O)C(=O)C(CC2=C(O)C(=O)C(CCCCCCCCCCCCC)=C(O)C2=O)=C(O)C1=O
[1]
  T/C: 66 % of control and 80 % of control
[2]
  T/C: 73 % of control
[3]
  T/C: 101 % of control

## NCCc1ccccc1
dose: 31.3 mg/kg/injection, schedule: Q01DX007 (ip), vehicle: saline
  T/C: 83 % of control
dose: 62.5 mg/kg/injection, schedule: Q01DX007 (ip), vehicle: saline
  T/C: 32 % of control

## N#Cc1cn(C2OC(CO)C(O)C2O)c2ncnc(N)c12 (stereo unspecified)
dose: 0.05 mg/kg/injection, schedule: Q#A X014 (ip), vehicle: carboxymethylcellulose (CMC)
  T/C: 79 % of control

## Nc1nc(SN=Nc2ccc(S(=O)(=O)O)cc2)c2[nH]cnc2n1
dose: 1.75 mg/kg/injection, schedule: Q01DX007 (ip), vehicle: other
  T/C: 104 % of control
dose: 3.5 mg/kg/injection, schedule: Q01DX007 (ip), vehicle: other
  T/C: 80 % of control
dose: 6.0 mg/kg/injection, schedule: Q01DX007 (ip), vehicle: other
  T/C: 65 % of control
dose: 7.0 mg/kg/injection, schedule: Q01DX007 (ip), vehicle: other
  T/C: 46 % of control
dose: 9.0 mg/kg/injection, schedule: Q01DX007 (ip), vehicle: other
  T/C: 57 % of control
dose: 14.0 mg/kg/injection, schedule: Q01DX007 (ip), vehicle: other
  T/C: 18 % of control and 27 % of control and 33 % of control
dose: 21.0 mg/kg/injection, schedule: Q01DX007 (ip), vehicle: other
  T/C: 1 % of control and 14 % of control

## O=C(O)c1ccc(-c2ccccc2)cc1
[1]
  T/C: 95 % of control
[2]
  T/C: 118 % of control
[3]
  T/C: 120 % of control

## CO[C@H](C(=O)[C@@H](O)[C@@H](C)O)[C@@H]1Cc2cc3cc(OC4CC(OC5CC(O)C(O)C(C)O5)C(O)C(C)O4)c(C)c(O)c3c(O)c2C(=O)[C@H]1OC1CC(OC2CC(OC3CC(C)(O)C(O)C(C)O3)C(O)C(C)O2)C(O)C(C)O1 (stereo partly specified)
dose: 0.25 mg/kg/injection, schedule: Q01DX007 (ip), vehicle: water
  T/C: 72 % of control
dose: 0.3 mg/kg/injection, schedule: Q01DX007 (ip), vehicle: water
  T/C: 50 % of control
dose: 0.3 mg/kg/injection, schedule: Q02DX004 (ip), vehicle: water
  T/C: 74 % of control
dose: 0.45 mg/kg/injection, schedule: Q01DX007 (ip), vehicle: water
  T/C: 45 % of control
dose: 0.45 mg/kg/injection, schedule: Q02DX004 (ip), vehicle: water
  T/C: 80 % of control
dose: 0.5 mg/kg/injection, schedule: Q01DX007 (ip), vehicle: water
  T/C: 57 % of control
dose: 0.6 mg/kg/injection, schedule: Q02DX004 (ip), vehicle: water
  T/C: 47 % of control
dose: 1.0 mg/kg/injection, schedule: Q01DX007 (ip), vehicle: water
  T/C: 102 % of control
dose: 1.0 mg/kg/injection, schedule: Q02DX004 (ip), vehicle: water
  T/C: 80 % of control
dose: 2.0 mg/kg/injection, schedule: Q01DX007 (ip), vehicle: water
  T/C: 72 % of control
dose: 2.0 mg/kg/injection, schedule: Q02DX004 (ip), vehicle: water
  T/C: 67 % of control
dose: 3.0 mg/kg/injection, schedule: Q02DX004 (ip), vehicle: water
  T/C: 50 % of control
dose: 4.0 mg/kg/injection, schedule: Q02DX004 (ip), vehicle: water
  T/C: 60 % of control
dose: 5.0 mg/kg/injection, schedule: Q02DX004 (ip), vehicle: water
  T/C: 50 % of control

## CC(N)C(=O)NC1(C(=O)O)CCCC1 (stereo unspecified)
dose: 7.5 mg/kg/injection, schedule: Q#A X014 (ip), vehicle: carboxymethylcellulose (CMC)
  T/C: 75 % of control
dose: 15.0 mg/kg/injection, schedule: Q#A X014 (ip), vehicle: carboxymethylcellulose (CMC)
  T/C: 56 % of control
dose: 30.0 mg/kg/injection, schedule: Q#A X014 (ip), vehicle: carboxymethylcellulose (CMC)
  T/C: 62 % of control
dose: 60.0 mg/kg/injection, schedule: Q#A X014 (ip), vehicle: carboxymethylcellulose (CMC)
  T/C: 46 % of control

## C[C@H]1C[C@@H]2[C@H](C(=O)C[C@@]3(C)[C@H]2CC[C@]3(O)C(=O)CO)[C@@]2(C)C=CC(=O)C=C12
dose: 221.0 mg/kg/injection, schedule: Q01DX007 (sc), vehicle: steriod suspending solution
  T/C: 41 % of control
dose: 330.0 mg/kg/injection, schedule: Q01DX007 (sc), vehicle: steriod suspending solution
  T/C: 43 % of control and 65 % of control
dose: 739.0 mg/kg/injection, schedule: Q01DX007 (sc), vehicle: steriod suspending solution
  T/C: 13 % of control

## O=[N+]([O-])c1ccc(O)c([N+](=O)[O-])c1
dose: 1325.0 micrograms/kg/injection, schedule: Q01DX007 (ip), vehicle: carboxymethylcellulose (CMC)
  T/C: 69 % of control
dose: 2650.0 micrograms/kg/injection, schedule: Q01DX007 (ip), vehicle: carboxymethylcellulose (CMC)
  T/C: 96 % of control
dose: 4300.0 micrograms/kg/injection, schedule: Q01DX007 (ip), vehicle: carboxymethylcellulose (CMC)
  T/C: 71 % of control
dose: 6625.0 micrograms/kg/injection, schedule: Q01DX007 (ip), vehicle: carboxymethylcellulose (CMC)
  T/C: 79 % of control

## CC1(C)O[C@@H]2C[C@H]3[C@@H]4CCC5=CC(=O)CC[C@]5(C)[C@@]4(F)[C@@H](O)C[C@]3(C)[C@]2(C(=O)CO)O1
dose: 2.2 mg/kg/injection, schedule: Q#A X014 (sc), vehicle: steriod suspending solution
  T/C: 53 % of control and 63 % of control
dose: 2.3 mg/kg/injection, schedule: Q01DX007 (sc), vehicle: steriod suspending solution
  T/C: 61 % of control
dose: 3.3 mg/kg/injection, schedule: Q#A X014 (sc), vehicle: steriod suspending solution
  T/C: 62 % of control
dose: 3.5 mg/kg/injection, schedule: Q01DX007 (sc), vehicle: steriod suspending solution
  T/C: 47 % of control
dose: 5.0 mg/kg/injection, schedule: Q#A X014 (sc), vehicle: steriod suspending solution
  T/C: 27 % of control
dose: 5.3 mg/kg/injection, schedule: Q01DX007 (sc), vehicle: steriod suspending solution
  T/C: 43 % of control
dose: 7.5 mg/kg/injection, schedule: Q#A X014 (sc), vehicle: steriod suspending solution
  T/C: 24 % of control
dose: 12.0 mg/kg/injection, schedule: Q01DX007 (sc), vehicle: steriod suspending solution
  T/C: 36 % of control
dose: 27.0 mg/kg/injection, schedule: Q01DX007 (sc), vehicle: steriod suspending solution
  T/C: 39 % of control and 40 % of control
dose: 40.0 mg/kg/injection, schedule: Q01DX007 (sc), vehicle: steriod suspending solution
  T/C: 32 % of control
dose: 60.0 mg/kg/injection, schedule: Q01DX007 (sc), vehicle: steriod suspending solution
  T/C: 24 % of control
dose: 90.0 mg/kg/injection, schedule: Q01DX007 (sc), vehicle: steriod suspending solution
  T/C: 19 % of control and 30 % of control
dose: 130.0 mg/kg/injection, schedule: Q01DX007 (sc), vehicle: steriod suspending solution
  T/C: 16 % of control

## CCCCCCCCCCOP(N)(=O)OCCCCCCCCCC
dose: 27.75 mg/kg/injection, schedule: Q#A X014 (ip), vehicle: carboxymethylcellulose (CMC)
  T/C: 56 % of control and 64 % of control
dose: 41.5 mg/kg/injection, schedule: Q#A X014 (ip), vehicle: carboxymethylcellulose (CMC)
  T/C: 60 % of control and 63 % of control

## O=[N+]([O-])c1ccc(/C=N\Nc2ccc([N+](=O)[O-])cn2)cc1
dose: 5.1 mg/kg/injection, schedule: Q#A X014 (ip), vehicle: methylcellulose (MC)
  T/C: 88 % of control
dose: 10.25 mg/kg/injection, schedule: Q#A X014 (ip), vehicle: methylcellulose (MC)
  T/C: 61 % of control
dose: 12.0 mg/kg/injection, schedule: Q#A X014 (ip), vehicle: methylcellulose (MC)
  T/C: 98 % of control
dose: 20.55 mg/kg/injection, schedule: Q#A X014 (ip), vehicle: methylcellulose (MC)
  T/C: 64 % of control
dose: 41.1 mg/kg/injection, schedule: Q#A X014 (ip), vehicle: methylcellulose (MC)
  T/C: 47 % of control
